Reference: patent publication US20110105491A1, “THIAZOLIDINE COMPOUNDS AS OREXIN RECEPTOR ANTAGONISTS” (priority 2008, published 2011)
Like-named read-outs stand apart in the source and are kept apart here.

Legend:
[1] = biological target: T1, human orexin-1 receptor (Homo sapiens, UniProt O43613); test: FLIPR calcium assay of orexin receptor antagonistic activity, CHO cells expressing human orexin-1 receptor; assay type: cell-based; conditions: read-out: OX1 IC50
T1 construct: expressed in transfected cells; host or cells: Chinese hamster ovary (CHO) cells
T1 sequence (O43613 1-425): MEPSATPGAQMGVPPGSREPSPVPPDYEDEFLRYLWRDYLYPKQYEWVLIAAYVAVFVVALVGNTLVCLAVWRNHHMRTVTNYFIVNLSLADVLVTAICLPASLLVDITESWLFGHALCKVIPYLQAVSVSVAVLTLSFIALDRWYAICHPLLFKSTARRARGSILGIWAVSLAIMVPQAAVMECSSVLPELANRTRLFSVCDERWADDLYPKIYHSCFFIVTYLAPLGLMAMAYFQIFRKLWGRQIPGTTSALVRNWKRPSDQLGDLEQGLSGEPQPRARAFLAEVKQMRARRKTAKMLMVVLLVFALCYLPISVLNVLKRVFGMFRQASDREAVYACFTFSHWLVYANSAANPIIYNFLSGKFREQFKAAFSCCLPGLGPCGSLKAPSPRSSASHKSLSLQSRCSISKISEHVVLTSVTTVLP
Procedure: (§1) The orexin receptor antagonistic activity of the compounds of formula (I) is determined in accordance with the following experimental method.
(§2) Chinese hamster ovary (CHO) cells expressing the human orexin-1 receptor and the human orexin-2 receptor, respectively, are grown in culture medium (Ham F-12 with L-Glutamine) containing 300 μg/ml G418, […] penicillin, 100 μg/ml streptomycin and 10% heat inactivated fetal calf serum (FCS). The cells are seeded at 20′000 cells/well into 384-well black clear bottom sterile plates (Greiner). The seeded plates are incubated overnight at 37° C. in 5% CO2.
(§3) Human orexin-A as an agonist is prepared as 1 mM stock solution in MeOH:water (1:1), diluted in HBSS containing 0.1% bovine serum albumin (BSA), NaHCO3: 0.375 g/l and 20 mM HEPES for use in the assay at a final concentration of 3 nM.
(§4) Antagonists are prepared as 10 mM stock solution in DMSO, then diluted in 384-well plates using DMSO followed by a transfer of the dilutions into in HBSS containing 0.1% bovine serum albumin (BSA), NaHCO3: 0.375 g/l and 20 mM HEPES. On the day of the assay, 50 μl of staining buffer (HBSS containing 1% FCS, 20 mM HEPES, NaHCO3: 0.375 g/l, 5 mM probenecid (Sigma) and 3 μM of the fluorescent calcium indicator fluo-4 AM (1 mM stock solution in DMSO, containing 10% pluronic) is added to each well. The 384-well cell-plates are incubated for 50 min at 37° C. in 5% CO2 followed by equilibration at rt for 30-120 min before measurement.
(§5) Within the Fluorescent Imaging Plate Reader (FLIPR Tetra, Molecular Devices), antagonists are added to the plate in a volume of 10 μl/well, incubated for 10 min and finally […] of agonist is added. Fluorescence is measured for each well at 1 second intervals, and the height of each fluorescence peak is compared to the height of the fluorescence peak induced by 3 nM orexin-A with vehicle in place of antagonist. For each antagonist, the IC50 value (the concentration of compound needed to inhibit 50% of the agonistic response) is determined and may be normalized using the obtained IC50 value of a on-plate reference compound (normalized values in Table 1 are indicated by an asterisk *). Optimized conditions were achieved by adjustment of pipetting speed and cell splitting regime. The calculated IC50 values of the compounds may fluctuate depending on the daily cellular assay performance. Fluctuations of this kind are known to those skilled in the art.

[2] = biological target: T2, human orexin-2 receptor (Homo sapiens, UniProt O43614); test: FLIPR calcium assay of orexin receptor antagonistic activity, CHO cells expressing human orexin-2 receptor; assay type: cell-based; conditions: read-out: OX2 IC50
T2 construct: expressed in transfected cells; host or cells: Chinese hamster ovary (CHO) cells
T2 sequence (O43614 1-444): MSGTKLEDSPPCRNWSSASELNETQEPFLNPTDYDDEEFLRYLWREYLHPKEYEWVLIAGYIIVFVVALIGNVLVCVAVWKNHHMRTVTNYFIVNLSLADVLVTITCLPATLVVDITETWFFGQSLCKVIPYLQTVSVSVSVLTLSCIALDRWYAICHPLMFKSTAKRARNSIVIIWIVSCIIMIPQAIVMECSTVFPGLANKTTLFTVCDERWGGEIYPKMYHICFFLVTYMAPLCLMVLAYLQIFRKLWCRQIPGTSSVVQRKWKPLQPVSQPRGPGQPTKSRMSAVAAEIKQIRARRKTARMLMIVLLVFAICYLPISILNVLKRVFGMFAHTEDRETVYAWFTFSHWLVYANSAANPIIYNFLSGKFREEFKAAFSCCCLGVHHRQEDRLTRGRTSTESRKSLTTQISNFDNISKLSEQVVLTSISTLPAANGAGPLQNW
Procedure: as §1, §2, §3, §4, §5

[3] = tested on: rat; conditions: cited from earlier work
[4] = tested on: rat model; conditions: cited from earlier work
[5] = tested on: rat model of post-traumatic stress disorder; conditions: cited from earlier work
[6] = 3 nM orexin-A as agonist, not normalized, *2/*3 = geometric mean of n = 2/3 values

SMILES | IC50 [1, 6] [nM] | IC50 [2, 6] [nM] | IC50 [1] [nM] | IC50 [2] [nM] | also measured
Cc1nc(C(=O)N2CCSC2CNC(=O)c2cccc3ncsc23)c(-c2ccc(C)c(F)c2)s1 (racemic) [Example 120, rac-Benzothiazole-7-carboxylic acid {3-[5-(3-fluoro-4-methyl-phenyl)-2-methyl-thiazole-4-carbonyl]-thiazolidin-2-ylmethyl}-amide] | 8 | 7 | – | – | –
Cc1nc(C(=O)N2CCSC2CNC(=O)c2nn(C)c3ccccc23)c(-c2ccc(C)c(F)c2F)s1 (racemic) [Example 126, rac-1-Methyl-1H-indazole-3-carboxylic acid {3-[5-(2,3-difluoro-4-methyl-phenyl)-2-methyl-thiazole-4-carbonyl]-thiazolidin-2-ylmethyl}-amide] | 11 | 11 | – | – | –
Cc1cccc(-c2sc(N(C)C)nc2C(=O)N2CCSC2CNC(=O)c2cccc3c2CCO3)c1 (racemic) [Example 128, rac-2,3-Dihydro-benzofuran-4-carboxylic acid [3-(2-dimethylamino-5-m-tolyl-thiazole-4-carbonyl)-thiazolidin-2-ylmethyl]-amide] | 12 | 14 | – | – | –
CCc1onc(C)c1C(=O)NCC1SCCN1C(=O)c1nc(C)sc1-c1cccc(C)c1 (racemic) [Example 140, rac-5-Ethyl-3-methyl-isoxazole-4-carboxylic acid [3-(2-methyl-5-m-tolyl-thiazole-4-carbonyl)-thiazolidin-2-ylmethyl]-amide] | – | – | 9 | 9 | –
Cc1cccc(-c2sc(C)nc2C(=O)N2CCSC2CNC(=O)c2cnn(C)c2C(F)(F)F)c1 (racemic) [Example 142, rac-1-Methyl-5-trifluoromethyl-1H-pyrazole-4-carboxylic acid [3-(2-methyl-5-m-tolyl-thiazole-4-carbonyl)-thiazolidin-2-ylmethyl]-amide] | – | – | 5 | 12 | –
COc1ncccc1C(=O)NCC1SCCN1C(=O)c1nc(C)sc1-c1cccc(C)c1 (racemic) [Example 160, rac-2-Methoxy-N-[3-(2-methyl-5-m-tolyl-thiazole-4-carbonyl)-thiazolidin-2-ylmethyl]-nicotinamide] | – | – | 4 | 15 | –
Cc1cccc(-c2sc(C)nc2C(=O)N2CCSC2CNC(=O)c2cccc(C(F)(F)F)n2)c1 (racemic) [Example 162, rac-6-Trifluoromethyl-pyridine-2-carboxylic acid [3-(2-methyl-5-m-tolyl-thiazole-4-carbonyl)-thiazolidin-2-ylmethyl]-amide] | – | – | 5 | 41 | –
Cc1cccc(-c2sc(C)nc2C(=O)N2CCSC2CNC(=O)c2nc(C)oc2C)c1 (racemic) [Example 163, rac-2,5-Dimethyl-oxazole-4-carboxylic acid [3-(2-methyl-5-m-tolyl-thiazole-4-carbonyl)-thiazolidin-2-ylmethyl]-amide] | – | – | 5 | 8 | –
Cc1cccc(-c2sc(C)nc2C(=O)N2CCSC2CNC(=O)c2sc(C)nc2C)c1 (racemic) [Example 165, rac-2,4-Dimethyl-thiazole-5-carboxylic acid [3-(2-methyl-5-m-tolyl-thiazole-4-carbonyl)-thiazolidin-2-ylmethyl]-amide] | – | – | 6 | 5 | –
CNC(=O)[C@@H](c1ccccc1)N1CCc2cc(OC)c(OC)cc2[C@@H]1CCc1ccc(C(F)(F)F)cc1 [(2R)-2-{(1S)-6,7-dimethoxy-1-[2-(4-trifluoromethyl-phenyl)-ethyl]-3,4-dihydro-1H-isoquinolin-2-yl}-N-methyl-2-phenyl-acetamide] | – | – | – | – | alertness (active wake and locomotion) [3]: decrease alertness; time spent in REM and NREM sleep [3]: dose-dependently increase the time spent in both REM and NREM sleep; memory function [4]: enhance memory function; activity in model of post-traumatic stress disorder [5]: active
